Experimental data from ChEMBL document CHEMBL3244086, “A new class of antimalarial drugs: derivatives of benzothiopyrans” (J Med Chem, 1978).
Activity calls are given as the source filed them. No cut-off for these calls is given here.

Experiments:
Plasmodium gallinaceum [1] = experiment: Antimalarial activity against Plasmodium gallinaceum B infected in chick assessed as host survival time at 120 mg/kg, sc treated immediately after infection; type: functional, organism-based; set-up: dose 120 mg/kg
Plasmodium berghei [2] = experiment: Antimalarial activity against Plasmodium berghei infected in mouse assessed as host survival time at 640 mg/kg, sc treated after 3 days of infection (reference value: 6.2 +/- 0.5 days); type: functional
Plasmodium gallinaceum [3] = experiment: Antimalarial activity against Plasmodium gallinaceum B infected in chick assessed as host survival time at 320 mg/kg, sc treated immediately after infection; type: functional
Plasmodium berghei [4] = experiment: Antimalarial activity against Plasmodium berghei infected in mouse assessed as host survival time at 320 mg/kg, sc treated after 3 days of infection (reference value: 6.2 +/- 0.5 days); type: functional
Plasmodium berghei [5] = experiment: Antimalarial activity against Plasmodium berghei infected in mouse assessed as host cured at 320 to 640 mg/kg, sc treated after 3 days of infection; type: functional, organism-based
Plasmodium berghei [6] = experiment: Antimalarial activity against Plasmodium berghei infected in mouse assessed as host survival time at 160 mg/kg, sc treated after 3 days of infection (reference value: 6.2 +/- 0.5 days); type: functional; conditions: route subcutaneous
Mus musculus = experiment: Toxicity in mouse at 640 mg/kg, sc; type: organism-based; set-up: dose 640 mg/kg, route subcutaneous; conditions: in vivo
Gallus gallus [7] = experiment: Toxicity in chick at 320 mg/kg, sc; type: organism-based; set-up: dose 320 mg/kg, route subcutaneous; conditions: chicken, in vivo
Plasmodium gallinaceum [8] = experiment: Antimalarial activity against Plasmodium gallinaceum B infected in chick assessed as host survival time at 160 mg/kg, sc treated immediately after infection; type: functional
Gallus gallus [9] = experiment: Toxicity in chick at 160 mg/kg, sc; type: organism-based; set-up: dose 160 mg/kg, route subcutaneous; conditions: chicken, in vivo
Gallus gallus [10] = experiment: Toxicity in chick at 120 mg/kg, sc; type: organism-based; set-up: dose 120 mg/kg, route subcutaneous; conditions: chicken, in vivo
Plasmodium gallinaceum [11] = experiment: Antimalarial activity against Plasmodium gallinaceum B infected in chick assessed as host survival time at 80 mg/kg, sc treated immediately after infection; type: functional, organism-based; set-up: dose 80 mg/kg

With `CCN(CC)CCCC(C)/N=c1\cc(-c2ccc(Cl)c(Cl)c2)sc2ccc(F)cc12` (centres undefined) the MST (Plasmodium gallinaceum [1]) was “inactive” and the MST (Plasmodium berghei [2]) was “inactive”.

In the case of `CCN(CC)CCCC(C)/N=c1\cc(-c2ccc(Cl)cc2)sc2ccc(Cl)cc12.Cl` (centres undefined), the MST (Plasmodium berghei [2]) was “inactive” and the MST (Plasmodium gallinaceum [3]; route subcutaneous) was 4.7 days.

With `CCN(CC)CCC/N=c1\cc(-c2ccccc2)sc2ccc(Cl)cc12.NS(=O)(=O)O` the MST (Plasmodium berghei [2]; route subcutaneous) was 10.3 days, the MST (Plasmodium berghei [4]; route subcutaneous) was 9.1 days and the MST (Plasmodium gallinaceum [3]) was “inactive”.

With `CN1CCN(CCC/N=c2\cc(-c3ccccc3)sc3ccc(Cl)cc23)CC1` the MST (Plasmodium berghei [4]; route subcutaneous) was 7.3 days and the MST (Plasmodium gallinaceum [3]) was “inactive”.

With `Clc1ccc2sc(-c3ccccc3)c/c(=N\C3CN4CCC3CC4)c2c1` (centres undefined) the MST (Plasmodium berghei [2]) was “inactive” and the MST (Plasmodium gallinaceum [3]) was “inactive”.

For `CN1CCN(CCC/N=c2\cc(-c3ccc(Cl)cc3)sc3ccc(Cl)cc23)CC1`, the Activity (Plasmodium berghei [5]) was “Active”, the MST (Plasmodium berghei [6]) was 6.2 days and the MST (Plasmodium berghei [4]; route subcutaneous) was 11.2 days. The MST (Plasmodium gallinaceum [3]; route subcutaneous) was 3.4 days.

`NCCC/N=c1\cc(-c2ccccc2)sc2ccc(Cl)cc12` was tested, and the MST (Plasmodium berghei [2]) was “inactive”.

With `Clc1ccc(-c2c/c(=N\Cc3ccccn3)c3cc(Cl)ccc3s2)cc1` the MST (Plasmodium berghei [4]) was “inactive” and the MST (Plasmodium gallinaceum [3]) was “inactive”.

In the case of `Clc1ccc2sc(-c3ccccc3)c/c(=N\C34CC5CC(CC(C5)C3)C4)c2c1`, the MST (Plasmodium berghei [2]) was “inactive” and the MST (Plasmodium gallinaceum [3]) was “inactive”.

With `Cl.Clc1ccc(-c2c/c(=N\CCCN3CCCCC3)c3cc(Cl)ccc3s2)cc1` the MST (Plasmodium berghei [2]) was “inactive” and the MST (Plasmodium gallinaceum [3]; route subcutaneous) was 5.2 days.

For `CN(C)CC/N=c1\cc(-c2ccccc2)sc2ccc(Cl)cc12`, the MST (Plasmodium berghei [2]) was “inactive”.

For `Clc1ccc(-c2c/c(=N\CCCCC3CCCCC3)c3cc(Cl)ccc3s2)cc1`, the MST (Plasmodium berghei [2]) was “inactive” and the MST (Plasmodium gallinaceum [3]) was “inactive”.

In the case of `Clc1ccc(-c2c/c(=N\CCCN3CCOCC3)c3cc(Br)ccc3s2)cc1Cl`, the MST (Plasmodium berghei [2]; route subcutaneous) was 10.5 days and the MST (Plasmodium gallinaceum [3]) was “inactive”.

In the case of `Clc1ccc2sc(-c3ccccc3)c/c(=N\CCCCC3CCCCC3)c2c1`, the MST (Plasmodium berghei [2]) was “inactive” and the MST (Plasmodium gallinaceum [3]) was “inactive”.

Compound `N=C(N)N/N=c1\cc(-c2ccccc2)sc2ccc(Cl)cc12` has an MST (Plasmodium berghei [2]; route subcutaneous) of 6.2 days.

`Clc1ccc2sc(-c3ccccc3)c/c(=N\CCN3CCCC3)c2c1` was tested, and the MST (Plasmodium berghei [2]) was “inactive”.

For `CCN(CC)CCCC(C)/N=c1\cc(-c2ccc(Cl)c(Cl)c2)sc2ccc(OC)cc12` (centres undefined), the MST (Plasmodium gallinaceum [1]) was “inactive”.

`CN(C)CCC/N=c1\cc(-c2ccc(Cl)cc2)sc2ccccc12.Cl` was tested, and the Activity (Plasmodium berghei [5]) was “Active” and the Activity (Mus musculus) was “Toxic”.

`Clc1ccc2sc(-c3ccccc3)c/c(=N\c3cccnc3)c2c1` was tested, and the MST (Plasmodium berghei [4]) was “inactive” and the MST (Plasmodium gallinaceum [3]) was “inactive”.

Compound `Cl.Clc1ccc2sc(-c3ccccc3)c/c(=N\CCCN3CCOCC3)c2c1` has an MST (Plasmodium berghei [2]; route subcutaneous) of 6.8 days.

For `CCN(CC)CCCC(C)/N=c1\cc(-c2ccccc2)sc2ccc(Cl)cc12.Cl` (centres undefined), the Activity (Plasmodium berghei [5]) was “Active”, the Activity (Gallus gallus [7]) was “Toxic” and the MST (Plasmodium berghei [6]) was 8 days. The MST (Plasmodium berghei [4]; route subcutaneous) was 10.6 days.

`CCN(CC)CCCC(C)/N=c1\cc(-c2ccc(F)cc2)sc2ccc(Br)cc12.Cl` (centres undefined) was tested, and the Activity (Gallus gallus [7]) was “Toxic”, the MST (Plasmodium berghei [2]; route subcutaneous) was 10.1 days and the MST (Plasmodium berghei [4]; route subcutaneous) was 6.9 days. For the same compound, the MST (Plasmodium gallinaceum [8]) was “inactive”.

With `CCN(CC)CCCC(C)/N=c1\cc(C23CC4CC(CC(C4)C2)C3)sc2ccc(Cl)cc12.Cl` (centres undefined) the MST (Plasmodium berghei [2]) was “inactive”, the MST (Plasmodium gallinaceum [8]) was “inactive” and the Activity (Gallus gallus [9]) was “Toxic”.

For `OCCN1CCN(CC/N=c2\cc(-c3ccc(Cl)cc3)sc3ccc(Cl)cc23)CC1`, the MST (Plasmodium berghei [2]) was “inactive” and the MST (Plasmodium gallinaceum [3]) was “inactive”.

In the case of `OCCN1CCN(CCCC/N=c2\cc(C34CC5CC(CC(C5)C3)C4)sc3ccc(Br)cc23)CC1`, the MST (Plasmodium gallinaceum [1]) was “inactive”, the MST (Plasmodium berghei [4]) was “inactive” and the Activity (Gallus gallus [10]) was “Toxic”.

`CCN(CC)CCCC(C)/N=c1\cc(-c2ccc(F)cc2)sc2ccc(F)cc12.Cl` (centres undefined) was tested, and the MST (Plasmodium berghei [2]) was “inactive” and the Activity (Gallus gallus [10]) was “Toxic”.

With `CN1CCN(CCC/N=c2\cc(-c3ccc(Cl)cc3)sc3ccc(Br)cc23)CC1` the MST (Plasmodium berghei [4]) was “inactive” and the MST (Plasmodium gallinaceum [8]) was “inactive”.

In the case of `CCN(CC)CCCC(C)/N=c1\cc(-c2ccccc2)sc2ccc(Br)cc12.Cl` (centres undefined), the Activity (Plasmodium berghei [5]) was “Active”, the MST (Plasmodium berghei [6]) was 9.5 days and the MST (Plasmodium gallinaceum [8]) was “inactive”.

With `CN(C)CCC/N=c1\cc(-c2ccccc2)sc2ccc(Br)cc12.Cl` the MST (Plasmodium berghei [4]; route subcutaneous) was 12.6 days.

`CCN(CC)CCCC(C)/N=c1\cc(-c2ccc(Cl)cc2)sc2ccc(Br)cc12.Cl` (centres undefined) was tested, and the MST (Plasmodium berghei [4]) was “inactive” and the MST (Plasmodium gallinaceum [8]; route subcutaneous) was 5 days.

For `CCN(CC)CCCC(C)/N=c1\cc(-c2ccc(Cl)cc2)sc2ccccc12.Cl` (centres undefined), the MST (Plasmodium gallinaceum [11]) was “inactive”, the MST (Plasmodium berghei [4]) was “inactive” and the Activity (Mus musculus) was “Toxic”. For the same compound, the Activity (Gallus gallus [9]) was “Toxic”.

With `Cl.OCCN1CCN(CCCC/N=c2\cc(-c3ccc(Cl)cc3)sc3ccc(Cl)cc23)CC1` the Activity (Gallus gallus [7]) was “Toxic”, the MST (Plasmodium berghei [2]; route subcutaneous) was 7.9 days and the MST (Plasmodium berghei [4]; route subcutaneous) was 7.4 days. The Activity (Mus musculus) was “Toxic”.

For `CN1CCN(CCC/N=c2\cc(-c3ccc(Cl)cc3)sc3ccccc23)CC1`, the MST (Plasmodium berghei [4]; route subcutaneous) was 6.9 days.

In the case of `CN(C)CCC/N=c1\cc(-c2ccc(Cl)cc2)sc2ccc(Cl)cc12`, the Activity (Plasmodium berghei [5]) was “Active”, the MST (Plasmodium berghei [6]) was 7 days and the MST (Plasmodium berghei [4]; route subcutaneous) was 9.8 days. For the same compound, the MST (Plasmodium gallinaceum [3]; route subcutaneous) was 4.4 days and the MST (Plasmodium gallinaceum [8]; route subcutaneous) was 3.4 days.

`CN(C)CCC/N=c1\cc(-c2ccccc2)sc2ccc(Cl)cc12.Cl.O` gave an MST (Plasmodium berghei [2]; route subcutaneous) of 13.6 days.

In the case of `CCN(CC)CCCC(C)/N=c1\cc(-c2ccc(Cl)c(Cl)c2)sc2ccc(Br)cc12` (centres undefined), the MST (Plasmodium berghei [4]) was “inactive” and the MST (Plasmodium gallinaceum [8]) was “inactive”.

`O=C(NCCC/N=c1\cc(-c2ccccc2)sc2ccc(Cl)cc12)OCc1ccccc1` was tested, and the MST (Plasmodium berghei [2]) was “inactive”.

`CN1CCCC1CC/N=c1\cc(-c2ccc(Cl)c(Cl)c2)sc2ccc(F)cc12` (centres undefined) was tested, and the MST (Plasmodium berghei [2]) was “inactive” and the MST (Plasmodium gallinaceum [3]) was “inactive”.

Work on `CN1CCCC1CC/N=c1\cc(-c2ccccc2)sc2ccc(Cl)cc12` (centres undefined) yielded an MST (Plasmodium berghei [4]; route subcutaneous) of 7 days.
